Experimental data as given in patent US12479847B2 (DANA-FARBER CANCER INSTITUTE, INC., priority 2019, dated 2025).

Key:
Assay in all cases: KINOMEscan (ScanMAX) kinase profiling
Type in all cases: binding
[1] = target: T1, panel of 468 kinases (Homo sapiens, UniProt P54760); details: EPHB4; 1 μM; read-out: % control
T1 construct: purchased KINOMEscan (ScanMAX) service
T1 sequence (P54760 16-987): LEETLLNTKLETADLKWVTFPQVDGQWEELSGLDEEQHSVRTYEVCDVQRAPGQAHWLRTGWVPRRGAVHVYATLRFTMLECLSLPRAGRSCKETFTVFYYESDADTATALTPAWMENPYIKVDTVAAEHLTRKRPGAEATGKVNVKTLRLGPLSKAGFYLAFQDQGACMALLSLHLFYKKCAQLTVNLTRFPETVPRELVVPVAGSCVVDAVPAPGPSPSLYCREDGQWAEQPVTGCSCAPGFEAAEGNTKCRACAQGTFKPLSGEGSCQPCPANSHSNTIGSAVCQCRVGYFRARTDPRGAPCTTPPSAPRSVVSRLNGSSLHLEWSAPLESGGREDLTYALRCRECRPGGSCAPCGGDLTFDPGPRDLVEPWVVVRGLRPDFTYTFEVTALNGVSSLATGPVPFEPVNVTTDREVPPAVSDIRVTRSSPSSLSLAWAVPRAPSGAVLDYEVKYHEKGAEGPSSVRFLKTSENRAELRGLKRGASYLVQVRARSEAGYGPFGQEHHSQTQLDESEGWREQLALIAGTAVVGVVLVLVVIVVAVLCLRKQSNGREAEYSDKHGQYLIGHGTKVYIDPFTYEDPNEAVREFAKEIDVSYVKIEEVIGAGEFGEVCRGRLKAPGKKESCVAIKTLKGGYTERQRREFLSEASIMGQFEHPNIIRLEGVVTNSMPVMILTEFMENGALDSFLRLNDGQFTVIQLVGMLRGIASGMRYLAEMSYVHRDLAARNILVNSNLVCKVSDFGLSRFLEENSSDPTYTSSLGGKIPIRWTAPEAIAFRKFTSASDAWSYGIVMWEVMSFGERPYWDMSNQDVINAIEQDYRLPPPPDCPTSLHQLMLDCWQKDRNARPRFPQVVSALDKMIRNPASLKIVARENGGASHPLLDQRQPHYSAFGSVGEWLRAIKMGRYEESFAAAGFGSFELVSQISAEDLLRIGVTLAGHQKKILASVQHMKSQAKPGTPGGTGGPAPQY

[2] = target: T2, panel of 468 kinases (Homo sapiens, UniProt P35590); details: TIE1; 1 μM; read-out: % control
T2 construct: purchased KINOMEscan (ScanMAX) service
T2 sequence (P35590 22-1138): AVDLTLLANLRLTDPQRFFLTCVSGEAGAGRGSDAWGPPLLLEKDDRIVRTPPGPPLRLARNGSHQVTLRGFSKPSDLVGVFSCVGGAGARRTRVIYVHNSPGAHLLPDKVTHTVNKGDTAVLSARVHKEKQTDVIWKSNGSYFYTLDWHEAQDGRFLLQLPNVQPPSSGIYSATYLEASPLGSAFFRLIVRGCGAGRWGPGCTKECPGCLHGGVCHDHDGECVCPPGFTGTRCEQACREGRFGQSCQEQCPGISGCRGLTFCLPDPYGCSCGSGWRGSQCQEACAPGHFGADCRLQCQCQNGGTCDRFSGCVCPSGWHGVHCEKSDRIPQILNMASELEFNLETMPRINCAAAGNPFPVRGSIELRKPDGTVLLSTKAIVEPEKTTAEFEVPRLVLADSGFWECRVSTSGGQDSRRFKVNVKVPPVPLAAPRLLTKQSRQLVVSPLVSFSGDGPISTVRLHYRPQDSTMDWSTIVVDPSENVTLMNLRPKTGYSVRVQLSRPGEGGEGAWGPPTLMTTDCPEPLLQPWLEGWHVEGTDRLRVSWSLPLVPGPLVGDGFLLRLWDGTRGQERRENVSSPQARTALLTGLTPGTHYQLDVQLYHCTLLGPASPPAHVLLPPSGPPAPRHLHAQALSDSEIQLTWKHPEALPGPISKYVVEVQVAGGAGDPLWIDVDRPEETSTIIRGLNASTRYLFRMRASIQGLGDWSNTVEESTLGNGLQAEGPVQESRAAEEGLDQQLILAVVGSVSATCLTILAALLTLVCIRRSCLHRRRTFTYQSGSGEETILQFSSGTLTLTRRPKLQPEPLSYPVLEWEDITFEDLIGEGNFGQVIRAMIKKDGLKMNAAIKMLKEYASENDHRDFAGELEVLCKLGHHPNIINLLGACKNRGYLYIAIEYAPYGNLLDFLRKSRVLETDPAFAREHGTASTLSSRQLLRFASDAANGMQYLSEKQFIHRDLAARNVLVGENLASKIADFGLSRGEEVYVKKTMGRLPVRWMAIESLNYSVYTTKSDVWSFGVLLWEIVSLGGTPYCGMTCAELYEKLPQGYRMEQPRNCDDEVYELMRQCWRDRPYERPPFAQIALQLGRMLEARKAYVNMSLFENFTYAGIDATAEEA

[3] = target: T3, panel of 468 kinases (Homo sapiens, UniProt P27037); details: ACVR2A; 1 μM; read-out: % control
T3 construct: purchased KINOMEscan (ScanMAX) service
T3 sequence (P27037 20-513): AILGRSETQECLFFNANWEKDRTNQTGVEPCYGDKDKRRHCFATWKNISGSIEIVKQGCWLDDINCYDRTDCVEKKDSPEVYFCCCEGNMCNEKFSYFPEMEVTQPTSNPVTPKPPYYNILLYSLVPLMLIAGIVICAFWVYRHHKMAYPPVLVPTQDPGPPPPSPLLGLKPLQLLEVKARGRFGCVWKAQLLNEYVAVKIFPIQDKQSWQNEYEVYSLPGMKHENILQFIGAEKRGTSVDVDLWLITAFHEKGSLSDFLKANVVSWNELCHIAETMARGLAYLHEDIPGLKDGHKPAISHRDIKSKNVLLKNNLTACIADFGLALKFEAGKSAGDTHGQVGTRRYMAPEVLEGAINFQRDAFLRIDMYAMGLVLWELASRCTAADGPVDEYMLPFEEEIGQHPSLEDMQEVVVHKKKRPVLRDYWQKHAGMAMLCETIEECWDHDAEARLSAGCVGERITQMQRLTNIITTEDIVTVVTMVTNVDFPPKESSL

[4] = target: T4, panel of 468 kinases (Homo sapiens, UniProt P36888, R834Q); details: FLT3(R834Q); 1 μM; read-out: % control
T4 construct: purchased KINOMEscan (ScanMAX) service
T4 sequence (P36888 27-993 R834Q): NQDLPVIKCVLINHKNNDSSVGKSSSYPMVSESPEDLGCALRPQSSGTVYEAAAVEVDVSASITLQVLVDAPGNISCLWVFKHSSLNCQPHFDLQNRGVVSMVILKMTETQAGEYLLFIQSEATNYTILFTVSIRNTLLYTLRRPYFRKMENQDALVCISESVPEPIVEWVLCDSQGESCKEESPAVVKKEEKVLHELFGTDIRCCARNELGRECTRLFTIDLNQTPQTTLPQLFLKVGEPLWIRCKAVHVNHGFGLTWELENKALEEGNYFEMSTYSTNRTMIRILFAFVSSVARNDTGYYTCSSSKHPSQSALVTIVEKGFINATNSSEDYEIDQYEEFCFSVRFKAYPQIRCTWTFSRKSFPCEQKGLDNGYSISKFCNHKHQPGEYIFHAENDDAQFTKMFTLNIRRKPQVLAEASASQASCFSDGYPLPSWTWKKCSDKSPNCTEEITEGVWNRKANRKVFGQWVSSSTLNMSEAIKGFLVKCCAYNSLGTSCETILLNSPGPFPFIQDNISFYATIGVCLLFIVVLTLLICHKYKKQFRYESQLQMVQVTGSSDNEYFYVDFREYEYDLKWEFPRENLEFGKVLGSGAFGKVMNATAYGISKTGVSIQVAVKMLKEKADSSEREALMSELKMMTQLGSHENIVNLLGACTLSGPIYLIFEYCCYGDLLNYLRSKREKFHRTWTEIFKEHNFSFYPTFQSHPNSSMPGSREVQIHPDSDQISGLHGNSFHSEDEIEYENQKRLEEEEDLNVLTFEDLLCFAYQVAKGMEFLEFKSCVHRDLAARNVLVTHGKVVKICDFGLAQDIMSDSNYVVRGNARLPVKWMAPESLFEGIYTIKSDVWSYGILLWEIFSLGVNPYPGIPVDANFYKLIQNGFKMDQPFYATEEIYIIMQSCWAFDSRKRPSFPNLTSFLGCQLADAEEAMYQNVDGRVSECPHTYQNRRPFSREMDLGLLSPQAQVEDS

## CNc1nc(Nc2ccc(C(=O)N3CCC(N4CCOCC4)CC3)c3c2OCO3)nc2[nH]cc(Cl)c12 [Compound 75, (7-((5-chloro-4-(methylamino)-7H-pyrrolo[2,3-d]pyrimidin-2-yl)amino)benzo[d][1,3]dioxol-4-yl)(4-morpholinopiperidin-1-yl)methanone]
[1]
  remaining binding at 1 µM: 100%
[2]
  remaining binding at 1 µM: 100%
[3]
  remaining binding at 1 µM: 100%
[4]
  remaining binding at 1 µM: 73%

## CNc1nc(Nc2ccc(S(=O)(=O)N3CCC(N4CCOCC4)CC3)cc2OC)nc2[nH]cc(Cl)c12 [Compound 12, 5-chloro-N2-(2-methoxy-4-((4-morpholinopiperidin-1-yl)sulfonyl)phenyl)-N4-methyl-7H-pyrrolo[2,3-d]pyrimidine-2,4-diamine]
[1]
  remaining binding at 1 µM: 100%
[2]
  remaining binding at 1 µM: 100%
[3]
  remaining binding at 1 µM: 100%
[4]
  remaining binding at 1 µM: 92%

## CNc1nc(Nc2ccc(P3(=O)CCN(C4CCOCC4)CC3)cc2OC)nc2[nH]cc(Cl)c12 [Compound 77, 4-(4-((5-chloro-4-(methylamino)-7H-pyrrolo[2,3-d]pyrimidin-2-yl)amino)-3-methoxyphenyl)-1-(tetrahydro-2H-pyran-4-yl)-1,4-azaphosphinane 4-oxide]
[1]
  remaining binding at 1 µM: 100%
[2]
  remaining binding at 1 µM: 100%
[3]
  remaining binding at 1 µM: 100%
[4]
  remaining binding at 1 µM: 82%
